From patent publication US7723320B2, “Use of estrogen compounds to increase libido in women” (Pantarhei Bioscience B.V., priority 2001, dated 2010)

Tests used:
[1] = molecular target: T1, human sex Hormone Binding Globulin (SHBG) (Homo sapiens, UniProt P04278); assay: Competitive steroid-binding assay, SHBG; settings: [3H]DHT or [3H]estradiol as labeled ligands
T1 construct: made in house; host or cells: transgenic mouse (purified from serum)
T1 sequence (P04278 30-402): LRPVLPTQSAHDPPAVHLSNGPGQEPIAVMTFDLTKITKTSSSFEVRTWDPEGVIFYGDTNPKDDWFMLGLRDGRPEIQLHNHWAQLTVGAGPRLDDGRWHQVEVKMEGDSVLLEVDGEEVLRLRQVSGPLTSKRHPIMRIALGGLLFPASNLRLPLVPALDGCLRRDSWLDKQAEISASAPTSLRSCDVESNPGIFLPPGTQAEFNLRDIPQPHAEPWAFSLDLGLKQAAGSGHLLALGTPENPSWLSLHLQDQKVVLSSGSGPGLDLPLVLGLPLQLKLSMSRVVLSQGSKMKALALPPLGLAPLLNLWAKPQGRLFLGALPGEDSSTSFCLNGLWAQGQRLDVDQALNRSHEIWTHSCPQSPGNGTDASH
Experimental: Human SHBG was treated for 30 min at room temperature with a dextran-coated charcoal (DCC) suspension in phosphate buffered saline (PBS) to remove any steroid ligand. After centrifugation (2,000×g for 10 min) to sediment the DCC, the supernatant containing the human SHBG was diluted in PBS to a concentration of 1 nM based on its steroid binding capacity.
The average amounts of [^3H]labeled ligands bound to SHBG at each concentration of competitor (B) were expressed as a percentage of the average amounts of [^3H]labeled ligands bound to SHBG in the absence of competitor (B0), and were plotted against the concentration of competitor in each assay tube.

[2] = tested on: ovariectomized adult rats; assay: Vaginal cornification bioassay in ovariectomized rats; type: in vivo, rat; settings: 0.05 mg/kg/day
Text: Uterine weight increase in the rat is more commonly used as a measure of estrogenicity. […] In the early 1920s it was discovered that follicular fluid from the pig ovary contained a factor(s) that caused cornification/keratinization of the vaginal epithelium in the rat (Allen and Doisy, 1923, JAMA, 81,819-821; Allen and Doisy, 1924, Am. J. Physiol., 69, 577-588). The so-called vaginal cornification response in rats subsequently provided a bioassay for testing estrogenicity. Vaginal epithelial cornification/keratinization in ovariectomized rats can be produced only by compounds considered to be true estrogens (Jones et al, 1973, Fert. Steril. 24, 284-291). […] Adult intact female CD rats were ovariectomized to induce estrogen deficiency. […] Castrate vaginal smears are indicative that complete ovanectomy was achieved. Treatment commenced following completion of the 7 days of smearing (day 0=first day of dosing). Animals were dosed, once daily for 7 consecutive days. Daily vaginal lavages continued to be obtained for 7 days after dosing was initiated in order to detect vaginal cornification, as an indication of an estrogenic response. A drop of vaginal washings was placed on a glass slide and examined by light microscopy to detect the presence or absence of cornified epithelial cells. Vaginal lavages were obtained prior to dosing on days 0-6 and prior to necropsy on day 7. The vaginal cornification bioassay was performed in order to determine the estrogenic profile of E4 when given subcutaneously (sc) to ovariectomized adult rats. E2 was used as a positive control. […] The vaginal cornification bioassay was performed in order to determine the estrogenic profile of E4 when given orally (po) to ovariectomized adult rats. EE was used as a positive control. […] A vaginal estrogenic response occurred in all rats (8/8) given 50 μg/kg/day EE po by day 7 (Table 2).

`C[C@]12CCC(=O)C[C@@H]1CC[C@@H]1[C@@H]2CC[C@]2(C)[C@@H](O)CC[C@@H]12` [5α-dihydrotestosterone] was tested, and the “relative binding affinity for human SHBG” value [1] was “in this order, show an increased relative binding affinity”.

With `C[C@]12CC[C@@H]3c4ccc(O)cc4CC[C@H]3[C@@H]1CC[C@@H]2O` [E2, 17β-estradiol, reference compound] the “Number of Rats Exhibiting Estrogenic Response/Number of Rats Treated” value ([2]; sc, Day 0) was 0/8, the “Number of Rats Exhibiting Estrogenic Response/Number of Rats Treated” value ([2]; sc, Day 1) was 0/8 and the “Number of Rats Exhibiting Estrogenic Response/Number of Rats Treated” value ([2]; sc, Day 2) was 8/8. The “Number of Rats Exhibiting Estrogenic Response/Number of Rats Treated” value ([2]; sc, Day 3) was 8/8, the “Number of Rats Exhibiting Estrogenic Response/Number of Rats Treated” value ([2]; sc, Day 4) was 8/8 and the “Number of Rats Exhibiting Estrogenic Response/Number of Rats Treated” value ([2]; sc, Day 5) was 8/8. The “Number of Rats Exhibiting Estrogenic Response/Number of Rats Treated” value ([2]; sc, Day 6) was 8/8 and the “Number of Rats Exhibiting Estrogenic Response/Number of Rats Treated” value ([2]; sc, Day 7) was 8/8.

In the case of `C[C@]12CC[C@H]3[C@@H](CCC4=CC(=O)CC[C@@]43C)[C@@H]1CC[C@@H]2O` [testosterone], the “relative binding affinity for human SHBG” value [1] is reported as “in this order, show an increased relative binding affinity”.

For `C#C[C@]1(O)CC[C@H]2[C@@H]3CCc4cc(O)ccc4[C@H]3CC[C@@]21C` [EE, 17α-ethinylestradiol, reference compound], the “Number of Rats Exhibiting Estrogenic Response/Number of Rats Treated” value ([2]; po, Day 0) was 0/8, the “Number of Rats Exhibiting Estrogenic Response/Number of Rats Treated” value ([2]; po, Day 1) was 1/8 and the “Number of Rats Exhibiting Estrogenic Response/Number of Rats Treated” value ([2]; po, Day 2) was 3/8. For the same compound, the “Number of Rats Exhibiting Estrogenic Response/Number of Rats Treated” value ([2]; po, Day 3) was 8/8, the “Number of Rats Exhibiting Estrogenic Response/Number of Rats Treated” value ([2]; po, Day 4) was 8/8 and the “Number of Rats Exhibiting Estrogenic Response/Number of Rats Treated” value ([2]; po, Day 5) was 8/8. For the same compound, the “Number of Rats Exhibiting Estrogenic Response/Number of Rats Treated” value ([2]; po, Day 6) was 8/8 and the “Number of Rats Exhibiting Estrogenic Response/Number of Rats Treated” value ([2]; po, Day 7) was 8/8.
